The nature of data set [1]: Solubility assessment (UPLC-UV). The format is physicochemical. To be noted: acetate buffer pH 4.5, 2.7 mg/ml m-cresol (buffer system A), target 10 mg/ml. In a few lines: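 Peptides at 10 mg/mL (purity-corrected, by UPLC/MS) in 100 mM acetate buffer pH 4.5 with 2.7 mg/ml m-Cresol, gently agitated 1 hour, then centrifuged 15 min at 2500 RCF. Supernatant, diluted 1:10, quantified by UPLC-UV peak area against a reference peptide standard curve, extinction-coefficient corrected.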

A short description of data set [2]: Dynamic light scattering (DLS), hydrodynamic radius as surrogate for interaction parameter kD. To be noted: for Delta Rh [nm] = Rh5 − Rh1: DLS buffer system A pH 4.5; for Rh1 [nm] c= 1 mg/ml / Rh5 [nm] c = 5 mg/ml: hydrodynamic radius, DLS buffer system A pH 4.5, DLS method C, 25° C. The format is physicochemical. In a few lines:
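Rh and diffusion constant measured in triplicate at 1 and 5 mg/ml peptide in 25 mM acetate pH4.5 with methionine, m-cresol and glycerol, at 25°C, 830 nm, 158°. Rh5<Rh1 or D5>D1 taken as kD>0, indicating repulsive interactions.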

Data set [3] deals with T1, human GLP-1 receptor (hGLP-1 R) (Homo sapiens, UniProt P43220).
T1 construct: expressed in transfected cells; host or cells: HEK-293
T1 sequence (P43220 24-463): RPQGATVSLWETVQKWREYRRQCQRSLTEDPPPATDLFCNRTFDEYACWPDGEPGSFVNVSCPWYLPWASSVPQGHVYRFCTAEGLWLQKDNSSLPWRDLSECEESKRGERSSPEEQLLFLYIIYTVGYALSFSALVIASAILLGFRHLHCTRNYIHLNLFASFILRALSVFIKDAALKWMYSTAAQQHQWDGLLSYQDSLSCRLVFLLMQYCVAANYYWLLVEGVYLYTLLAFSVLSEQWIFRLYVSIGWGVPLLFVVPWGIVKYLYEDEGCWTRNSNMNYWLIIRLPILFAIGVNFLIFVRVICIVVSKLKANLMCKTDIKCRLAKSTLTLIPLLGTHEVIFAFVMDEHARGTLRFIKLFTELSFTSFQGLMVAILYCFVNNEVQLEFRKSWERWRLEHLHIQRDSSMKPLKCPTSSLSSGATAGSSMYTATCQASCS
Kind of data set: cAMP response (HTRF) of HEK-293 cells stably expressing human GLP-1 receptor. To be noted: Table 8; cAMP formation. It is filed as cell-based. On the procedure: cAMP content of cells was determined using a kit from Cisbio Corp. (cat. no. 62AM4PEJ) based on HTRF (Homogenous Time Resolved Fluorescence). For preparation, cells were split into T175 culture flasks and grown overnight to near confluency in medium (DMEM/10% FBS). Medium was then removed and cells washed with PBS lacking calcium and magnesium, followed by proteinase treatment with accutase (Sigma-Aldrich cat. no. A6964). Detached cells were washed and resuspended in assay buffer (1×HBSS; 20 mM HEPES, 0.1% BSA, 2 mM IBMX) and cellular density determined. They were then diluted to 400000 cells/ml and 25 μl-aliquots dispensed into the wells of 96-well plates. For measurement, 25 μl of test compound in assay buffer was added to the wells, followed by incubation for 30 minutes at room temperature.
Potencies of peptidic compounds at the GLP-1, glucagon and GIP receptors were determined by exposing cells expressing human glucagon receptor (hGlucagon R), human GIP receptor (hGIP-R) or human GLP-1 receptor (hGLP-1 R) to the listed compounds at increasing concentrations and measuring the formed cAMP as described in Methods.
In general terms: Time-resolved FRET reads energy transfer from a long-lived donor to a nearby acceptor.

Numbered stars: 1 amine (or outer) side, 2 acyl side, 3 side chain; on linkers, the order of the positions; unused ones are H or OH. Square brackets hold non-standard residues; d marks the D form. Side chains are listed from the residue outwards. Peptide text beside a SMILES is read from it. * marks the point of attachment. γGlu = O=C(O)[C@H](CCC(=O)[*:2])N[*:1]; Palmitoyl = CCCCCCCCCCCCCCCC(=O)*; Aib = CC(C)(N)C(=O)O

As a reminder, the solubility is the concentration that dissolves in the medium under given conditions. Higher therefore signals much dissolved substance. As a reminder, the EC50 is the concentration needed to bring the measured effect to its halfway point. Higher therefore signals a less potent agent.

With `CCCCCCCCCCCCCCCC(=O)N[C@@H](CCC(=O)N[C@@H](CCC(=O)NCCCC[C@H](NC(=O)[C@H](CC(C)C)NC(=O)[C@H](CCCCN)NC(=O)[C@H](CO)NC(=O)[C@H](CC(C)C)NC(=O)[C@H](CC(=O)O)NC(=O)[C@H](CO)NC(=O)[C@@H](NC(=O)[C@H](Cc1ccccc1)NC(=O)[C@@H](NC(=O)CNC(=O)[C@H](CCC(N)=O)NC(=O)C(C)(C)NC(=O)[C@@H](N)Cc1c[nH]cn1)[C@@H](C)O)[C@@H](C)O)C(=O)N[C@@H](CCC(=O)O)C(=O)N[C@@H](CCCCN)C(=O)N[C@@H](CCC(N)=O)C(=O)N[C@@H](CCCNC(=N)N)C(=O)N[C@@H](CCC(N)=O)C(=O)NC(C)(C)C(=O)N[C@@H](CCC(=O)O)C(=O)N[C@@H](Cc1ccccc1)C(=O)N[C@H](C(=O)N[C@@H](CCC(=O)O)C(=O)N[C@@H](Cc1c[nH]c2ccccc12)C(=O)N[C@@H](CC(C)C)C(=O)N[C@@H](CCCCN)C(=O)N[C@@H](C)C(=O)NCC(=O)NCC(=O)N1CCC[C@H]1C(=O)N1CCC[C@H]1C(=O)N[C@@H](CO)C(=O)NC(C)(C)C(=O)N[C@@H](CCCCN)C(=O)N1CCC[C@H]1C(=O)N1CCC[C@H]1C(=O)N1CCC[C@H]1C(=O)N[C@@H](CCCCN)C(N)=O)[C@@H](C)CC)C(=O)O)C(=O)O` [SEQ ID NO: 6, H-Aib-Q-G-T-F-T-S-D-L-S-K-L-K[gGlu-gGlu-Palm]-E-K-Q-R-Q-Aib-E-F-I-E-W-L-K-A-G-G-P-P-S-Aib-K-P-P-P-K-NH2], the solubility at 1 h in data set [1] was above 9600 µg/mL. In data set [2], the “Delta Rh [nm] = Rh5 − Rh1” value is listed as −0.5 nm, the “Rh1 [nm] c= 1 mg/ml” value came out at 2.3 nm and the “Rh5 [nm] c = 5 mg/ml” value came out at 1.8 nm.

Compound `CCCCCCCCCCCCCCCC(=O)N[C@@H](CCC(=O)N[C@@H](CCC(=O)NCCCC[C@H](NC(=O)[C@H](CC(C)C)NC(=O)[C@H](CCCCN)NC(=O)[C@H](CO)NC(=O)[C@H](CC(C)C)NC(=O)[C@H](CC(=O)O)NC(=O)[C@H](CO)NC(=O)[C@@H](NC(=O)[C@H](Cc1ccccc1)NC(=O)[C@@H](NC(=O)CNC(=O)[C@H](CCC(N)=O)NC(=O)C(C)(C)NC(=O)[C@@H](N)Cc1c[nH]cn1)[C@@H](C)O)[C@@H](C)O)C(=O)N[C@@H](CCC(=O)O)C(=O)N[C@@H](CCCCN)C(=O)N[C@@H](CCC(N)=O)C(=O)N[C@@H](CCCNC(=N)N)C(=O)N[C@@H](CCC(N)=O)C(=O)NC(C)(C)C(=O)N[C@@H](CCC(=O)O)C(=O)N[C@@H](Cc1ccccc1)C(=O)N[C@H](C(=O)N[C@@H](CCC(=O)O)C(=O)N[C@@H](Cc1c[nH]c2ccccc12)C(=O)N[C@@H](CC(C)C)C(=O)N[C@@H](CCCCN)C(=O)N[C@@H](C)C(=O)N[C@H](C)C(=O)NCC(=O)N1CCC[C@H]1C(=O)N1CCC[C@H]1C(=O)N[C@@H](CO)C(=O)NC(C)(C)C(=O)N[C@@H](CCCCN)C(=O)N1CCC[C@H]1C(=O)N1CCC[C@H]1C(=O)N1CCC[C@H]1C(=O)N[C@@H](CCCCN)C(N)=O)[C@@H](C)CC)C(=O)O)C(=O)O` [SEQ ID NO: 7, H-Aib-Q-G-T-F-T-S-D-L-S-K-L-K[gGlu-gGlu-Palm]-E-K-Q-R-Q-Aib-E-F-I-E-W-L-K-A-dAla-G-P-P-S-Aib-K-P-P-P-K-NH2] (H-H[Aib]QGTFTSDLSKLK([γGlu-γGlu-Palmitoyl])EKQRQ[Aib]EFIEWLKA[dA]GPPS[Aib]KPPPK-NH2) showed a solubility at 1 h in data set [1] above 9900 µg/mL. Besides, in data set [2], the “Delta Rh [nm] = Rh5 − Rh1” value is given as −0.3 nm, the “Rh1 [nm] c= 1 mg/ml” value is given as 2.8 nm and the “Rh5 [nm] c = 5 mg/ml” value stood at 2.4 nm.

In data set [1], `CCCCCCCCCCCCCCCC(=O)N[C@@H](CCC(=O)N[C@@H](CCC(=O)NCCCC[C@H](NC(=O)[C@H](CC(C)C)NC(=O)[C@H](CCCCN)NC(=O)[C@H](CO)NC(=O)[C@H](CC(C)C)NC(=O)[C@H](CC(=O)O)NC(=O)[C@H](CO)NC(=O)[C@@H](NC(=O)[C@H](Cc1ccccc1)NC(=O)[C@@H](NC(=O)CNC(=O)[C@H](CCC(N)=O)NC(=O)C(C)(C)NC(=O)[C@@H](N)Cc1c[nH]cn1)[C@@H](C)O)[C@@H](C)O)C(=O)N[C@@H](CCC(=O)O)C(=O)N[C@@H](CCC(=O)O)C(=O)N[C@@H](CCC(N)=O)C(=O)N[C@@H](CCCNC(=N)N)C(=O)N[C@@H](CCC(N)=O)C(=O)NC(C)(C)C(=O)N[C@@H](CCC(=O)O)C(=O)N[C@@H](Cc1ccccc1)C(=O)N[C@H](C(=O)N[C@@H](CCC(=O)O)C(=O)N[C@@H](Cc1c[nH]c2ccccc12)C(=O)N[C@@H](CC(C)C)C(=O)N[C@@H](CCCCN)C(=O)N[C@@H](C)C(=O)NCC(=O)NCC(=O)N[C@@H](Cc1c[nH]cn1)C(=O)N1CCC[C@H]1C(=O)N[C@@H](CO)C(=O)NC(C)(C)C(=O)N[C@@H](CCCCN)C(=O)N1CCC[C@H]1C(=O)N1CCC[C@H]1C(=O)N1CCC[C@H]1C(=O)N[C@@H](CCCCN)C(N)=O)[C@@H](C)CC)C(=O)O)C(=O)O` [SEQ ID NO: 8, H-Aib-Q-G-T-F-T-S-D-L-S-K-L-K[gGlu-gGlu-Palm]-E-E-Q-R-Q-Aib-E-F-I-E-W-L-K-A-G-G-H-P-S-Aib-K-P-P-P-K-NH2] registered a solubility at 1 h above 10000 µg/mL.

`CCCCCCCCCCCCCCCC(=O)N[C@@H](CCC(=O)N[C@@H](CCC(=O)NCCCC[C@H](NC(=O)[C@H](CC(C)C)NC(=O)[C@H](CCCCN)NC(=O)[C@H](CO)NC(=O)[C@H](CC(C)C)NC(=O)[C@H](CC(=O)O)NC(=O)[C@H](CO)NC(=O)[C@@H](NC(=O)[C@H](Cc1ccccc1)NC(=O)[C@@H](NC(=O)CNC(=O)[C@H](CCC(N)=O)NC(=O)C(C)(C)NC(=O)[C@@H](N)Cc1c[nH]cn1)[C@@H](C)O)[C@@H](C)O)C(=O)N[C@@H](CCC(=O)O)C(=O)N[C@@H](CCC(=O)O)C(=O)N[C@@H](CCC(N)=O)C(=O)N[C@@H](CCCNC(=N)N)C(=O)N[C@@H](CCC(N)=O)C(=O)NC(C)(C)C(=O)N[C@@H](CCC(=O)O)C(=O)N[C@@H](Cc1ccccc1)C(=O)N[C@H](C(=O)N[C@@H](CCC(=O)O)C(=O)N[C@@H](Cc1c[nH]c2ccccc12)C(=O)N[C@@H](CC(C)C)C(=O)N[C@@H](CCCCN)C(=O)N[C@@H](C)C(=O)N[C@H](C)C(=O)NCC(=O)N1CCC[C@H]1C(=O)N1CCC[C@H]1C(=O)N[C@@H](CO)C(=O)NC(C)(C)C(=O)N[C@@H](CCCCN)C(=O)N1CCC[C@H]1C(=O)N1CCC[C@H]1C(=O)N1CCC[C@H]1C(=O)N[C@@H](CCCCN)C(N)=O)[C@@H](C)CC)C(=O)O)C(=O)O` [SEQ ID NO: 10, H-Aib-Q-G-T-F-T-S-D-L-S-K-L-K[gGlu-gGlu-Palm]-E-E-Q-R-Q-Aib-E-F-I-E-W-L-K-A-dAla-G-P-P-S-Aib-K-P-P-P-K-NH2] (H-H[Aib]QGTFTSDLSKLK([γGlu-γGlu-Palmitoyl])EEQRQ[Aib]EFIEWLKA[dA]GPPS[Aib]KPPPK-NH2): in data set [1], the solubility at 1 h is above 10100 µg/mL. The compound further gave an EC50 in data set [3] of 2.4 pM.

As for `CCCCCCCCCCCCCCCC(=O)N[C@@H](CCC(=O)N[C@@H](CCC(=O)NCCCC[C@H](NC(=O)[C@H](CC(C)C)NC(=O)[C@H](CCCCN)NC(=O)[C@H](CO)NC(=O)[C@H](CC(C)C)NC(=O)[C@H](CC(=O)O)NC(=O)[C@H](CO)NC(=O)[C@@H](NC(=O)[C@H](Cc1ccccc1)NC(=O)[C@@H](NC(=O)CNC(=O)[C@H](CCC(N)=O)NC(=O)C(C)(C)NC(=O)[C@@H](N)Cc1c[nH]cn1)[C@@H](C)O)[C@@H](C)O)C(=O)N[C@@H](CCC(=O)O)C(=O)N[C@@H](CCCCN)C(=O)N[C@@H](CCC(N)=O)C(=O)N[C@@H](CCCNC(=N)N)C(=O)N[C@@H](CCC(N)=O)C(=O)NC(C)(C)C(=O)N[C@@H](CCC(=O)O)C(=O)N[C@@H](Cc1ccccc1)C(=O)N[C@H](C(=O)N[C@@H](CCC(=O)O)C(=O)N[C@@H](Cc1c[nH]c2ccccc12)C(=O)N[C@@H](CC(C)C)C(=O)N[C@@H](CCCCN)C(=O)N[C@@H](C)C(=O)N[C@H](C)C(=O)NCC(=O)N[C@@H](Cc1c[nH]cn1)C(=O)N1CCC[C@H]1C(=O)N[C@@H](CO)C(=O)NC(C)(C)C(=O)N[C@@H](CCCCN)C(=O)N1CCC[C@H]1C(=O)N1CCC[C@H]1C(=O)N1CCC[C@H]1C(=O)N[C@@H](CCCCN)C(N)=O)[C@@H](C)CC)C(=O)O)C(=O)O` [SEQ ID NO: 13, H-Aib-Q-G-T-F-T-S-D-L-S-K-L-K[gGlu-gGlu-Palm]-E-K-Q-R-Q-Aib-E-F-I-E-W-L-K-A-dAla-G-H-P-S-Aib-K-P-P-P-K-NH2] (H-H[Aib]QGTFTSDLSKLK([γGlu-γGlu-Palmitoyl])EKQRQ[Aib]EFIEWLKA[dA]GHPS[Aib]KPPPK-NH2), the solubility at 1 h in data set [1] is above 9300 µg/mL. Also, in data set [2], the “Delta Rh [nm] = Rh5 − Rh1” value was −0.3 nm, the “Rh1 [nm] c= 1 mg/ml” value was found to be 2.8 nm and the “Rh5 [nm] c = 5 mg/ml” value is listed as 2.5 nm.
